# Measurements reported in US8710233B2 (Gruenenthal GmbH, priority 2005, dated 2014).
# Like-named read-outs stand apart in the source and are kept apart here.
# Legend:
# [1] = system: formaldehyde induced nociceptive behaviour; test: Formaldehyde test in mice, second (late) phase; assay type: in vivo, mouse; details: for inhibition in vivo at 0.1 mg/kg / inhibition in vivo at 1 mg/kg / inhibition in vivo at 0.3 mg/kg: read-out: inhibition formaldehyde test (n = 10)
# [2] = biological target: T1, vanilloid receptor 1 (VR1/TRPV1) of the rat species (Rattus norvegicus, UniProt O35433); test: FLIPR Ca2+ influx assay on rat dorsal root ganglia cells (pharmacological method I); assay type: cell-based
# T1 construct: The spinal column is removed from decapitated rats; from tissue; host or cells: primary cells dissociated from rat dorsal root ganglia
# T1 sequence (O35433 whole entry): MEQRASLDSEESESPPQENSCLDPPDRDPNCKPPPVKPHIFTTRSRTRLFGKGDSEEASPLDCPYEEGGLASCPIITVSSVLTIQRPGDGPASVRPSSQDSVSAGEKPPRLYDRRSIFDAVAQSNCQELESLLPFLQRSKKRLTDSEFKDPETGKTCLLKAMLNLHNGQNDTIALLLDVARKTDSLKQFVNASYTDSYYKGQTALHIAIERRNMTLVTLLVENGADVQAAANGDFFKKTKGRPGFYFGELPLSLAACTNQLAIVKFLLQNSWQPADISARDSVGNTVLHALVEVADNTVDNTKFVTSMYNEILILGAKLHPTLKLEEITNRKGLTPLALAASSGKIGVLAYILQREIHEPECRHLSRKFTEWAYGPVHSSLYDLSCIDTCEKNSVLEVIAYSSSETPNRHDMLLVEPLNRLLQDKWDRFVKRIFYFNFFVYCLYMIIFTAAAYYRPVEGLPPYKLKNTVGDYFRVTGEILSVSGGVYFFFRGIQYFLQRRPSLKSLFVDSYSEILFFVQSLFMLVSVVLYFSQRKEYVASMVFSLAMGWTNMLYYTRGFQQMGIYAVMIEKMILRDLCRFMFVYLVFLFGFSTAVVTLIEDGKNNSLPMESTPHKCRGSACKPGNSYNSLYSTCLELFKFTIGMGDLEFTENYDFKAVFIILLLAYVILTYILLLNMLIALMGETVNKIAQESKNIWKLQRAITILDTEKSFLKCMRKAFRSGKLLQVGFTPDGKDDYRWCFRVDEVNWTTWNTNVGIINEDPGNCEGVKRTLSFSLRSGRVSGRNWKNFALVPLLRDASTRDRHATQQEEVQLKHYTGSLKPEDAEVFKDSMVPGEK
# Outline: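 Primary rat dorsal root ganglion cells loaded with 2 μM Fluo-4, Ca2+ influx read on FLIPR as peak fluorescence. Triplicates, at least 3 independent experiments.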
# VR1/TRPV1 receptor = VR1/TRPV1 receptor (Homo sapiens, UniProt Q8NER1); test: IC50 (human) after pH stimulus; assay type: cell-based
# VR1/TRPV1 receptor, sequence (Q8NER1 whole entry): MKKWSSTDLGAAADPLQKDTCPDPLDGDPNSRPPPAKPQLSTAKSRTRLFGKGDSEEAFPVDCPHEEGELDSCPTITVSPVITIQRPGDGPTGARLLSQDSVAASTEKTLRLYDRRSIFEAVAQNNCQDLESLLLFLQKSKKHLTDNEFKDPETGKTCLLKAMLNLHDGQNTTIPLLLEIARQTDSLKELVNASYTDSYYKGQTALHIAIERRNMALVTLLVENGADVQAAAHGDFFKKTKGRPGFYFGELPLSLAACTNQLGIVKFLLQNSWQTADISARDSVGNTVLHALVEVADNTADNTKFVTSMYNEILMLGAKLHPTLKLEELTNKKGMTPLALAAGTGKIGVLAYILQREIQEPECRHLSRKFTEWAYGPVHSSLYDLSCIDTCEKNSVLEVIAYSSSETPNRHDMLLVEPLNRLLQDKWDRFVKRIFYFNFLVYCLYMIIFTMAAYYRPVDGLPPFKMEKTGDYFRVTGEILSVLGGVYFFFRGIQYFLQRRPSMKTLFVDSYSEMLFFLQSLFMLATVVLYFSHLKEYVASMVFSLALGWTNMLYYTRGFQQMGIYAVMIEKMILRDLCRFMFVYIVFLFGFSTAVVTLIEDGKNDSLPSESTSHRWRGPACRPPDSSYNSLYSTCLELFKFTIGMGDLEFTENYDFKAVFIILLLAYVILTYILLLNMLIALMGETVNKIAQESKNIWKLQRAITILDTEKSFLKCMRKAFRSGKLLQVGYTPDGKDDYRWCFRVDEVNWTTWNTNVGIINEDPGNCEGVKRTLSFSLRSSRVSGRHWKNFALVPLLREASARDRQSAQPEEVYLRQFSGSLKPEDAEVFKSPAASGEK
# vanilloid receptor (VR1) = biological target: T2, vanilloid receptor (VR1) (Homo sapiens, UniProt Q8NER1); test: FLIPR Ca2+ influx assay on CHO K1 cells transfected with the VR1 gene (pharmacological method II); assay type: cell-based
# T2 construct: expressed in transfected cells; host or cells: CHO K1 cells (ECACC), stably transfected
# T2 sequence (Q8NER1 whole entry): as above
# [3] = system: capsaicin induced hypothermie; test: Hypothermie assay in the mouse (capsaicin induced hypothermie); assay type: in vivo
# [4] = 0.1 mg/kg body weight po, mouse
# [5] = table 4, capsaicin, read-out: Ki (rat) Cap.
# [6] = table 4, capsaicin, read-out: Ki (human) Cap.
# [7] = 0.3 mg/kg body weight po, mouse, read-out: inhibition hypothermie (n = 5)
# [8] = 1 mg/kg body weight po, mouse, read-out: inhibition hypothermie (n = 5)
# [9] = 0.3 mg/kg body weight po, mouse
# [10] = Table 2, displacement of capsaicin (100 nM), Cheng-Prusoff, read-out: Ki (rat)
# [11] = Table 2, displacement of capsaicin (100 nM), Cheng-Prusoff, read-out: Ki (human)
smiles,measurement,setting,value
CC(C(=O)NCc1ccc(C(F)(F)F)nc1SC1CCCCC1)c1ccc(NS(C)(=O)=O)c(F)c1 (centres unmarked) [Example 126],inhibition in vivo at 0.1 mg/kg,[1]; [4],20%
same,Ki,[2]; [5],1.2 nM
same,IC50,VR1/TRPV1 receptor; table 4,101 nM
same,Ki,vanilloid receptor (VR1); [6],0.9 nM
same,inhibition in vivo at 0.3 mg/kg,[3]; [7],0%
CC(C(=O)NCc1ccc(C(F)(F)F)nc1OCCC(C)(C)C)c1ccc(NS(C)(=O)=O)c(F)c1 (centres unmarked) [Compound 125],inhibition in vivo at 1 mg/kg,"[1]; 1 mg/kg body weight po, mouse",19%
same,inhibition in vivo at 0.3 mg/kg,[3]; [7],37%
same,inhibition in vivo at 1 mg/kg,[3]; [8],32%
same,inhibition in vivo at 3 mg/kg,"[3]; 3 mg/kg body weight po, mouse, read-out: inhibition hypothermie (n = 5)",65%
CC(C(=O)NCc1ccc(C(C)(C)C)nc1OC1CCCC1)c1ccc(NS(C)(=O)=O)c(F)c1 (centres unmarked) [Compound 234],inhibition in vivo at 0.1 mg/kg,[1]; [4],28%
same,inhibition in vivo at 0.3 mg/kg,[1]; [9],41%
same,inhibition in vivo at 1 mg/kg,"[1]; 1 mg/kg body weight po, mouse",44%
same,inhibition in vivo at 0.3 mg/kg,[3]; [7],31%
"CC1CCN(c2cc(C(F)(F)F)ccc2CNC(=O)C(C)c2ccc(NS(C)(=O)=O)c(F)c2)CC1 (centres unmarked) [Example 82, 2-(3-Fluor-4-(methylsulfonamido)phenyl)-N-(2-(4-methylpiperidin-1-yl)-4-(trifluoromethyl)benzyl)propanamide]",inhibition formaldehyde test (n = 10),[1]; [9],0.3 po 39%
same,Ki,[2]; [5],0.7 nM
same,IC50,VR1/TRPV1 receptor; table 4,16.2 nM
same,Ki,vanilloid receptor (VR1); [6],0.9 nM
same,inhibition hypothermie (n = 5),[3]; [9],0.3 po 53%
"CC(C(=O)NCc1ccc(C(F)(F)F)nc1N1CCCC1)c1ccc(NS(C)(=O)=O)c(Br)c1 (centres unmarked) [Example 103, 2-(3-bromo-4-methylsulfonamido-phenyl)-N-(2-pyrrolidin-1-yl-6-trifluoromethyl-pyridin-3-ylmethyl)-propionamide]",inhibition in vivo at 0.3 mg/kg,[1]; [9],36%
same,Ki,[2]; [5],4.9 nM
same,inhibition at 10 µM,"VR1/TRPV1 receptor; @ 10 μM, read-out: inhibition in percent, IC50 (human) after pH stimulus",16%
same,Ki,vanilloid receptor (VR1); [6],2.8 nM
same,inhibition in vivo at 0.3 mg/kg,[3]; [7],39%
CC(C(=O)NCc1ccc(C(F)(F)F)cc1N1CCCCCC1)c1ccc(NS(C)(=O)=O)c(F)c1 (centres unmarked) [Compound 174],inhibition in vivo at 1 mg/kg,"[1]; 1 mg/kg body weight po, mouse",49%
"Cc1cc(C(C)C(=O)NCc2ccc(C(F)(F)F)nc2N2CCCCC2)ccc1NS(C)(=O)=O (centres unmarked) [Example 127, 2-(4-methylsulfonamido-3-methyl-phenyl)-N-(6′-trifluoromethyl-3,4,5,6-tetrahydro-2H-[1,2′]bipyridinyl-3′-ylmethyl)-propionamide]",inhibition in vivo at 0.3 mg/kg,[1]; [9],22%
same,Ki,[2]; [5],0.6 nM
same,IC50,VR1/TRPV1 receptor; table 4,15.4 nM
same,Ki,vanilloid receptor (VR1); [6],0.5 nM
same,inhibition in vivo at 0.3 mg/kg,[3]; [7],6%
"CC(C(=O)NCc1ccc(C(F)(F)Cl)nc1OC1CCCC1)c1ccc(NS(C)(=O)=O)c(F)c1 (centres unmarked) [Example 166, N-[6-(chloro-difluoro-methyl)-2-cyclopentyloxy-pyridin-3-ylmethyl]-2-(3-fluoro-4-methylsulfonamido-phenyl)-propionamide]",inhibition in vivo at 0.3 mg/kg,[1]; [9],48%
same,Ki,[2]; [5],1.1 nM
same,IC50,VR1/TRPV1 receptor; table 4,18.5 nM
same,Ki,vanilloid receptor (VR1); [6],0.5 nM
same,inhibition in vivo at 0.3 mg/kg,[3]; [7],28%
"CC(C(=O)NCc1ccc(C(F)(F)F)nc1N1CCC(c2ccccc2)(N(C)C)CC1)c1ccc(NS(C)(=O)=O)c(F)c1 (centres unmarked) [Example 330, N-(4-dimethylamino-4-phenyl-6′-trifluoromethyl-3,4,5,6-tetrahydro-2H-[1,2′]bipyridinyl-3′-ylmethyl)-2-(3-fluoro-4-methylsulfonamido-phenyl)-propionamide]",inhibition in vivo at 1 mg/kg,"[1]; Mus musculus, po",54%
same,inhibition in vivo at 1 mg/kg,"[3]; Mus musculus, po, read-out: inhibition hypothermie (n = 5)",7%
CC(C(=S)NCc1ccc(C(F)(F)F)nc1N1CCCC1)c1ccc(NS(C)(=O)=O)c(F)c1 (centres unmarked) [Compound 129],inhibition in vivo at 1 mg/kg,"[1]; 1 mg/kg body weight po, mouse",3%
CC(C(=O)NCc1ccc(C(F)(F)F)nc1N1CCC(N2CCCC2)CC1)c1ccc(NS(C)(=O)=O)c(F)c1 (centres unmarked) [Compound 165],inhibition in vivo at 1 mg/kg,"[1]; 1 mg/kg body weight po, mouse",15%
same,inhibition at 10 µM,"[2]; @ 10 μM, read-out: inhibition in percent, Ki (rat) Cap.",4%
same,inhibition at 10 µM,"vanilloid receptor (VR1); CHO-K1, @ 10 μM, read-out: inhibition in percent, Ki (human) Cap.",0.5%
CC(C(=O)NCc1ccc(C(F)(F)F)nc1-c1ccc(C(C)(C)C)cc1)c1ccc(NS(C)(=O)=O)c(F)c1 (centres unmarked) [Compound 117],inhibition in vivo at 1 mg/kg,"[1]; 1 mg/kg body weight po, mouse",41%
"CC(C(=O)NCc1ccc(C(F)(F)F)cc1N1CCCC1)c1ccc(NS(C)(=O)=O)c(F)c1 (centres unmarked) [Example 34, 2-(3-fluoro-4-(methylsulfonamido)phenyl)-N-(2-(pyrrolidin-1-yl)-4-(trifluoromethyl)benzyl)propanamide]",inhibition in vivo at 0.1 mg/kg,[1]; [4],6%
same,Ki,[2]; [10],2.5 nM
same,IC50,VR1/TRPV1 receptor; Table 2,121 nM
same,Ki,vanilloid receptor (VR1); [11],2.3 nM
CC(C(=O)NCc1ccc(C(F)(F)F)nc1OC1CCCCC1)c1ccc(NS(C)(=O)=O)c(F)c1 (centres unmarked) [Example 76],inhibition in vivo at 0.3 mg/kg,[1]; [9],12%
same,Ki,"[2]; Ki (rat), Table 2, displacement of capsaicin (100 nM), Cheng-Prusoff",1.5 nM
same,IC50,VR1/TRPV1 receptor; Table 2,43.4 nM
same,Ki,vanilloid receptor (VR1); [11],1.3 nM
CC(C(=O)NCc1ccc(C(F)(F)F)nc1N1CCCC1)c1ccc(NS(C)(=O)=O)c(Br)c1 (centres unmarked) [Compound 103],inhibition in vivo at 1 mg/kg,"[1]; 1 mg/kg body weight po, mouse",50%
CC(C(=S)NCc1ccc(C(F)(F)F)nc1-c1ccc(F)cc1)c1ccc(NS(C)(=O)=O)c(F)c1 (centres unmarked) [Compound 130],inhibition in vivo at 1 mg/kg,"[1]; 1 mg/kg body weight po, mouse",55%
CC(C(=O)NCc1ccc(C(F)(F)F)nc1NC1CCCCC1)c1ccc(NS(C)(=O)=O)c(F)c1 (centres unmarked) [Compound 90],inhibition in vivo at 1 mg/kg,"[1]; 1 mg/kg body weight po, mouse",37%
"CC(C(=O)NCc1ccc(C(F)(F)F)nc1OCCc1ccccc1)c1ccc(NS(C)(=O)=O)c(F)c1 (centres unmarked) [Example 178, 2-(3-fluoro-4-methylsulfonamido-phenyl)-N-(2-phenethyloxy-6-trifluoromethyl-pyridin-3-ylmethyl)-propionamide]",inhibition in vivo at 0.3 mg/kg,[1]; [9],16%
same,Ki,[2]; [5],1.9 nM
same,inhibition in vivo at 0.3 mg/kg,[3]; [7],42%
CC(C(=O)NCc1ccc(C(F)(F)F)nc1SC1CCCCC1)c1ccc(NS(C)(=O)=O)c(F)c1 (centres unmarked) [Compound 126],inhibition in vivo at 0.3 mg/kg,[1]; [9],69%
CC(C(=O)NCc1ccc(C(F)(F)F)nc1-c1cccs1)c1ccc(NS(C)(=O)=O)c(F)c1 (centres unmarked) [Compound 88],inhibition in vivo at 1 mg/kg,"[1]; 1 mg/kg body weight po, mouse",16%
CC(C(=O)NCc1ccc(C(F)(F)F)cc1N1CCCCCCC1)c1ccc(NS(C)(=O)=O)c(F)c1 (centres unmarked) [Compound 217],inhibition in vivo at 1 mg/kg,"[1]; 1 mg/kg body weight po, mouse",37%
same,inhibition in vivo at 0.3 mg/kg,[3]; [7],97%
CC(C(=O)NCc1ccc(C(F)(F)F)nc1OCc1ccncc1)c1ccc(NS(C)(=O)=O)c(F)c1 (centres unmarked) [Compound 177],inhibition in vivo at 1 mg/kg,"[1]; 1 mg/kg body weight po, mouse",24%
same,inhibition at 0.1 µM,"[2]; read-out: inhibition in percent, Ki (rat) Cap.",9%
"CC(C)CCOc1nc(C(C)(C)C)ccc1CNC(=O)C(C)c1ccc(NS(C)(=O)=O)c(F)c1 (centres unmarked) [Example 329, N-[6-tert-butyl-2-(3-methyl-butoxy)-pyridin-3-ylmethyl]-2-(3-fluoro-4-methylsulfonamido-phenyl)-propionamide]",inhibition in vivo at 1 mg/kg,"[1]; 1 mg/kg body weight po, mouse",54%
same,IC50,VR1/TRPV1 receptor; table 4,179 nM
same,Ki,vanilloid receptor (VR1); [6],0.8 nM
same,inhibition in vivo at 1 mg/kg,[3]; [8],7%
"CC(C(=O)NCc1ccc(C(F)(F)F)nc1-c1ccccc1F)c1ccc(NS(C)(=O)=O)c(F)c1 (centres unmarked) [Example 150, 2-(3-fluoro-4-methylsulfonamido-phenyl)-N-[2-(2-fluoro-phenyl)-6-trifluoromethyl-pyridin-3-ylmethyl]-propionamide]",inhibition in vivo at 0.3 mg/kg,[1]; [9],17%
same,Ki,[2]; [5],22.4 nM
same,IC50,VR1/TRPV1 receptor; table 4,1320 nM
same,Ki,vanilloid receptor (VR1); [6],63.3 nM
"CC(C(=O)NCc1ccc(C(F)(F)Cl)nc1N1CCCCC1)c1ccc(NS(C)(=O)=O)c(F)c1 (centres unmarked) [Example 71, N-((6-(chlorodiflouromethyl)-2-(piperidin-1-yl)pyridin-3-yl)methyl)-2-(3-fluoro-(4-methylsulfonamido)phenyl)propanamide]",inhibition formaldehyde test (n = 10),[1]; [9],0.3 po 0%
same,Ki,[2]; [10],0.8 nM
same,IC50,VR1/TRPV1 receptor; Table 2,22.4 nM
same,Ki,vanilloid receptor (VR1); [11],1.3 nM
CCCCN(C)c1nc(C(F)(F)F)ccc1CNC(=O)C(C)c1ccc(NS(C)(=O)=O)c(F)c1 (centres unmarked) [Compound 167],inhibition in vivo at 0.3 mg/kg,[1]; [9],56%
CC(C(=O)NCc1ccc(C(F)(F)F)nc1N1CCN(c2ccc(F)cc2)CC1)c1ccc(NS(C)(=O)=O)c(F)c1 (centres unmarked) [Compound 179],inhibition in vivo at 1 mg/kg,"[1]; 1 mg/kg body weight po, mouse",22%
CC(C(=O)NCc1ccc(C(F)(F)F)cc1N1CCCC1)c1ccc(NS(C)(=O)=O)c(F)c1 (centres unmarked) [Compound 34],inhibition in vivo at 0.3 mg/kg,[1]; [9],51%
"CCCCOc1nc(C(F)(F)Cl)ccc1CNC(=O)C(C)c1ccc(NS(C)(=O)=O)c(F)c1 (centres unmarked) [Example 140, N-[2-butoxy-6-(chlor-difluor-methyl)-pyridin-3-ylmethyl]-2-(3-fluoro-4-methylsulfonamido-phenyl)-propionamide]",inhibition formaldehyde test (n = 10),[1]; [4],0.1 po 56%
same,Ki,[2]; [5],0.4 nM
same,IC50,VR1/TRPV1 receptor; table 4,9.2 nM
same,Ki,vanilloid receptor (VR1); [6],0.7 nM
COC1CCN(c2nc(C(F)(F)F)ccc2CNC(=O)C(C)c2ccc(NS(C)(=O)=O)c(F)c2)CC1 (centres unmarked) [Compound 159],inhibition in vivo at 1 mg/kg,"[1]; 1 mg/kg body weight po, mouse",14%
CCC1CCC(Oc2nc(C(F)(F)F)ccc2CNC(=O)C(C)c2ccc(NS(C)(=O)=O)c(F)c2)CC1 (centres unmarked) [Compound 171],inhibition in vivo at 1 mg/kg,"[1]; 1 mg/kg body weight po, mouse",46%
CC(C(=O)NCc1ccc(C(F)(F)Cl)nc1OC1CCCC1)c1ccc(NS(C)(=O)=O)c(F)c1 (centres unmarked) [Compound 166],inhibition in vivo at 1 mg/kg,"[1]; 1 mg/kg body weight po, mouse",72%
CC(C(=O)NCc1ccc(C(F)(F)F)nc1OCCc1ccccc1)c1ccc(NS(C)(=O)=O)c(F)c1 (centres unmarked) [Compound 178],inhibition in vivo at 1 mg/kg,"[1]; 1 mg/kg body weight po, mouse",28%
CCCCOc1cc(C(C)(C)C)ccc1CNC(=O)C(C)c1ccc(NS(C)(=O)=O)c(F)c1 (centres unmarked) [Compound 108],inhibition in vivo at 1 mg/kg,"[1]; 1 mg/kg body weight po, mouse",24%
CCCCOC1CCN(c2nc(C(F)(F)F)ccc2CNC(=O)C(C)c2ccc(NS(C)(=O)=O)c(F)c2)CC1 (centres unmarked) [Compound 160],inhibition in vivo at 1 mg/kg,"[1]; 1 mg/kg body weight po, mouse",14%
